{
  "source": "PubChem BioAssay (NCI)",
  "assay_in_all_cases": "NCI-60 cell line screen, 48 h",
  "key": {"NCI-H23 lung": {"tested_on": "NCI-H23 lung"}, "SK-MEL-28 melanoma": {"tested_on": "SK-MEL-28 melanoma"}, "BT-549 breast": {"tested_on": "BT-549 breast"}, "M14 melanoma": {"tested_on": "M14 melanoma"}, "786-0 renal": {"tested_on": "786-0 renal"}, "OVCAR-8 ovarian": {"tested_on": "OVCAR-8 ovarian"}, "NCI/ADR-RES ovarian": {"tested_on": "NCI/ADR-RES ovarian"}, "COLO 205 colon": {"tested_on": "COLO 205 colon"}, "IGROV1 ovarian": {"tested_on": "IGROV1 ovarian"}, "MOLT-4 leukemia": {"tested_on": "MOLT-4 leukemia"}, "K-562 leukemia": {"tested_on": "K-562 leukemia"}, "HOP-92 NSCLC": {"tested_on": "HOP-92 NSCLC"}, "HS 578T breast": {"tested_on": "HS 578T breast"}, "PC-3 prostate": {"tested_on": "PC-3 prostate"}, "HOP-62 NSCLC": {"tested_on": "HOP-62 NSCLC"}, "MDA-MB-231 breast": {"tested_on": "MDA-MB-231 breast"}, "EKVX NSCLC": {"tested_on": "EKVX NSCLC"}, "NCI-H226 lung": {"tested_on": "NCI-H226 lung"}, "CCRF-CEM leukemia": {"tested_on": "CCRF-CEM leukemia"}, "SR leukemia": {"tested_on": "SR leukemia"}, "MDA-MB-435": {"tested_on": "MDA-MB-435"}, "NCI-H460 lung": {"tested_on": "NCI-H460 lung"}, "NCI-H522 lung": {"tested_on": "NCI-H522 lung"}, "SK-MEL-2 melanoma": {"tested_on": "SK-MEL-2 melanoma"}, "CAKI-1 renal": {"tested_on": "CAKI-1 renal"}, "ACHN renal": {"tested_on": "ACHN renal"}, "LOX IMVI melanoma": {"tested_on": "LOX IMVI melanoma"}, "SN12C renal": {"tested_on": "SN12C renal"}, "MCF7 breast": {"tested_on": "MCF7 breast"}},
  "note": "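Five concentrations, 48 hours, 96-well plates. Here, GI50 denotes the concentration required for 50% inhibition of growth. TGI denotes the concentration required for complete inhibition of growth.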",
  "data": [
    {"smiles": "CN(C)CCNC(=O)c1ccc(-c2nc3ccc4[nH]ncc4c3c3c2CCC3)cc1", "values": [
      {"measurement": "GI50", "setting": "NCI-H23 lung", "result": 1.19, "unit": "µM"},
      {"measurement": "TGI", "setting": "NCI-H23 lung", "result": 3.94, "unit": "µM"},
      {"measurement": "GI50", "setting": "SK-MEL-28 melanoma", "result": 1.31, "unit": "µM"},
      {"measurement": "TGI", "setting": "SK-MEL-28 melanoma", "result": 5.34, "unit": "µM"},
      {"measurement": "GI50", "setting": "BT-549 breast", "result": 0.65, "unit": "µM"},
      {"measurement": "TGI", "setting": "BT-549 breast", "result": 1.43, "unit": "µM"},
      {"measurement": "GI50", "setting": "M14 melanoma", "result": 0.961, "unit": "µM"},
      {"measurement": "TGI", "setting": "M14 melanoma", "result": 6.08, "unit": "µM"},
      {"measurement": "GI50", "setting": "786-0 renal", "result": 0.882, "unit": "µM"},
      {"measurement": "TGI", "setting": "786-0 renal", "result": 5.61, "unit": "µM"},
      {"measurement": "GI50", "setting": "OVCAR-8 ovarian", "result": 0.854, "unit": "µM"},
      {"measurement": "TGI", "setting": "OVCAR-8 ovarian", "result": 5.8, "unit": "µM"},
      {"measurement": "GI50", "setting": "NCI/ADR-RES ovarian", "result": 9.07, "unit": "µM"},
      {"measurement": "TGI", "setting": "NCI/ADR-RES ovarian", "result": 50, "unit": "µM"},
      {"measurement": "GI50", "setting": "COLO 205 colon", "result": 0.507, "unit": "µM"},
      {"measurement": "TGI", "setting": "COLO 205 colon", "result": 2.23, "unit": "µM"},
      {"measurement": "GI50", "setting": "IGROV1 ovarian", "result": 0.684, "unit": "µM"},
      {"measurement": "TGI", "setting": "IGROV1 ovarian", "result": 5.4, "unit": "µM"},
      {"measurement": "GI50", "setting": "MOLT-4 leukemia", "result": 1.04, "unit": "µM"},
      {"measurement": "TGI", "setting": "MOLT-4 leukemia", "result": 15.3, "unit": "µM"},
      {"measurement": "GI50", "setting": "K-562 leukemia", "result": 1.11, "unit": "µM"},
      {"measurement": "TGI", "setting": "K-562 leukemia", "result": 20.1, "unit": "µM"},
      {"measurement": "GI50", "setting": "HOP-92 NSCLC", "result": 0.343, "unit": "µM"},
      {"measurement": "TGI", "setting": "HOP-92 NSCLC", "result": 1.84, "unit": "µM"},
      {"measurement": "GI50", "setting": "HS 578T breast", "result": 0.549, "unit": "µM"},
      {"measurement": "TGI", "setting": "HS 578T breast", "result": 1.99, "unit": "µM"},
      {"measurement": "GI50", "setting": "PC-3 prostate", "result": 0.717, "unit": "µM"},
      {"measurement": "TGI", "setting": "PC-3 prostate", "result": 4.96, "unit": "µM"},
      {"measurement": "GI50", "setting": "HOP-62 NSCLC", "result": 0.593, "unit": "µM"},
      {"measurement": "TGI", "setting": "HOP-62 NSCLC", "result": 2.67, "unit": "µM"},
      {"measurement": "GI50", "setting": "MDA-MB-231 breast", "result": 0.927, "unit": "µM"},
      {"measurement": "TGI", "setting": "MDA-MB-231 breast", "result": 2.84, "unit": "µM"},
      {"measurement": "GI50", "setting": "EKVX NSCLC", "result": 0.891, "unit": "µM"},
      {"measurement": "TGI", "setting": "EKVX NSCLC", "result": 5.01, "unit": "µM"},
      {"measurement": "GI50", "setting": "NCI-H226 lung", "result": 1.01, "unit": "µM"},
      {"measurement": "TGI", "setting": "NCI-H226 lung", "result": 6.34, "unit": "µM"},
      {"measurement": "GI50", "setting": "CCRF-CEM leukemia", "result": 0.857, "unit": "µM"},
      {"measurement": "TGI", "setting": "CCRF-CEM leukemia", "result": 28.7, "unit": "µM"},
      {"measurement": "GI50", "setting": "SR leukemia", "result": 0.14, "unit": "µM"},
      {"measurement": "TGI", "setting": "SR leukemia", "result": 2.82, "unit": "µM"},
      {"measurement": "GI50", "setting": "MDA-MB-435", "result": 1.13, "unit": "µM"},
      {"measurement": "TGI", "setting": "MDA-MB-435", "result": 6.99, "unit": "µM"},
      {"measurement": "GI50", "setting": "NCI-H460 lung", "result": 1.28, "unit": "µM"},
      {"measurement": "TGI", "setting": "NCI-H460 lung", "result": 5.17, "unit": "µM"},
      {"measurement": "GI50", "setting": "NCI-H522 lung", "result": 0.387, "unit": "µM"},
      {"measurement": "TGI", "setting": "NCI-H522 lung", "result": 1.32, "unit": "µM"},
      {"measurement": "GI50", "setting": "SK-MEL-2 melanoma", "result": 0.85, "unit": "µM"},
      {"measurement": "TGI", "setting": "SK-MEL-2 melanoma", "result": 1.83, "unit": "µM"},
      {"measurement": "GI50", "setting": "CAKI-1 renal", "result": 0.263, "unit": "µM"},
      {"measurement": "TGI", "setting": "CAKI-1 renal", "result": 5.54, "unit": "µM"},
      {"measurement": "GI50", "setting": "ACHN renal", "result": 0.844, "unit": "µM"},
      {"measurement": "TGI", "setting": "ACHN renal", "result": 6.86, "unit": "µM"},
      {"measurement": "GI50", "setting": "LOX IMVI melanoma", "result": 0.616, "unit": "µM"},
      {"measurement": "TGI", "setting": "LOX IMVI melanoma", "result": 1.5, "unit": "µM"},
      {"measurement": "GI50", "setting": "SN12C renal", "result": 1.13, "unit": "µM"},
      {"measurement": "TGI", "setting": "SN12C renal", "result": 4.15, "unit": "µM"},
      {"measurement": "GI50", "setting": "MCF7 breast", "result": 0.657, "unit": "µM"}
    ]}
  ]
}
